Assays:
HDAC4-YY1 interaction = test: Reciprocal co-immunoprecipitation of HDAC4 and YY1 in nuclear fraction of hiPsCMs; assay type: cell-based, human; conditions: nuclear fraction from hiPsCMs
Experimental: Briefly, fresh LV (˜30 mg) tissue or harvested untreated or treated cells (˜3×10^6 cells) were washed using cold DPBS along with 100-fold diluted protease and phosphatase inhibitors. Human cardiomyocytes were pelleted by centrifugation at 480×g for 10 min at 4° C., while the myocardium was placed in a pre-chilled glass Petri dish and minced on ice using sharp scissors. All samples were homogenized in 500 μl of STM buffer at pH 7.4, containing 250 mM sucrose, 50 mM Tris-HCl, 5 mM MgCl2, 5 mM Na3VO4, 1% (v/v) protease and phosphatase inhibitor cocktails and homogenized for 1 min on ice using a tight-fitting Teflon pestle attached to a Potter S. homogenizer (Sartorius Stedium, Goettingen, Germany) set to 800 rpm. The homogenate was maintained on ice for 30 min, vortexed at maximum speed for 15 s and then centrifuged at 800×g for 15 min at 4° C. The pellet was labelled as P0 and kept on ice; the supernatant was labelled as S0. The pellet P0 (containing nuclei and debris) was resuspended in 500 μl STM buffer, vortexed at maximum speed for 15 s and then centrifuged at 500×g for 15 min at 4° C. Following the above step, the nuclear pellet was labelled as P1 and kept on ice, and the supernatant S1 (cell debris) was discarded. […] The protein content of each compartment was determined using the BCA protein assay^48. […]

miR-106b = miR-106b levels by quantitative RT-PCR in hiPsCMs exposed to Dox; assay type: cell-based, human; conditions: 5 μM Dox
Experimental: Human induced pluripotent stem cells (hiPCs) were obtained from Phenocell®, (Catalog No. PCi_CAU) and cultured according to manufacturer's instructions. Briefly, hiPCs on a suitable matrix to allow attachment of cell aggregates (Matrigel®), were grown to 80% confluence using mTeSR™ plus medium. At passage 20, we started reprogramming procedure using a standardize protocol in our laboratory. Thus, culture medium was removed and changed to RPMI-1640 with B27 minus insulin supplement (basal differentiation supplement) with 4 μM CHIR99021 (day 0). On day 3, medium was changed to basal differentiation supplement and 3 μM IWR-1. On day 5, medium was refreshed with basal differentiation supplement. Medium was changed on day 8 to RPMI 1640 with B27 supplement (cited above as RMPI/B27). On day 11, medium was changed to RPMI 1640 without glucose with B27 minus insulin. On day 14, medium was changed to RPMI/B27; procedure that was repeated every 72 h. Beating clusters were observed after 7-14 days. A standardizing gene expression profiling (RT-qPCR) both hiPs as well as hiPsCMs were carried in each human isolated clone, before starting assays. […] The cardiotoxic treatment was carried out by exposing the cell culture to 5 μM doxorubicin for different time period; unless otherwise mentioned. All the in vitro assays were performed as three biological replicates, with technical replicates each time.
Mature miR-106b expression levels were assessed by quantitative RT-PCR using the miRCURY LNA UniRT PCR primer for miR813 106b-5p (Qiagen) and Power SYBR5Green PCR Master Mix (Thermo Fisher Scientific). U6 (Qiagen) was used as internal control to normalize miR-106b expression.

PR55α = PR55α expression levels by Western blot in hiPsCMs; assay type: cell-based, human; conditions: for decrease in PR55α protein levels: Dox
From the text: The hsa-miR-106b-5p sequence of nucleotides was obtained from www.MiRbase.org. Human miR-106b (accession No: MIMAT0000680) and nucleotide sequence of 5′-[…]-3′ are homologous between mice and man. In order to express or block the specific miR-106b function, synthetic pre-miR-106b or antimiR-106 oligonucleotides were transfected into hiPsCMs cells, respectively. Lipofectamine RNAiMAX transfection reagent (ThermoFisher) was used according to the manufacturer's instructions. […] Two day before transfection, hiPsCMs cells were seeded in 6-well plates with 2 ml of STEMdiff™ Cardiomyocyte Support Medium (STEMCELL™ Technologies) to a density of 60%. Stock transfection mixes were made according to manufacturer's instructions. Briefly, 9 μl of Lipofectamine reagent was diluted in 141 μl of Opti-MEM I Medium (Invitrogen) and incubated 5 min at RT. In another tube, pre-miRNA, anti-miRNA or the specific controls oligonucleotides were diluted with Opti-MEM to a final concentration of 50 nM. Both mixes were incubated together for 30 min at RT to allow complex formation between miRNA and lipids. To transfect cells, the STEMdiff™ Cardiomyocyte Support Medium was removed and replaced with 1.75 ml fresh Medium and 250 μl of the appropriate transfection mix. Cells were incubated at 37° C. for […], after which hiPsCMs were treated with […] Dox for 15 h. Transfection efficiency was tested in parallel using both hiPsCMs as well as a mouse cell line HL-1 (FIG. 7). […]
(§1) Protein extracts (10 μg) obtained were denatured, separated by SDS-PAGE electrophoresis (Bio-Rad), transferred onto PVDF membrane (Millipore) and probed with antibodies to GADPH (MERCK, 8795,1:5000), TBP (CELL SIGNALING, 8515, 1:1000), PR55α (CELL SIGNALING, 5689, 1:1000), phospho-HDAC4 (ABCAM, ab39408, 1:2000), HDAC4 (CELL SIGNALING, 5392, 1:1000), YY1 (CELL SIGNALING, 2185,1:1000) and sST2 (PROTEINTECH, 11,920-1-AP, 1:1000). […] Signals were detected by chemiluminescence and quantified using ImageJ 1.44p pixel analysis (US National Institutes of Health).

YY1 = YY1 expression levels by Western blot in hiPsCMs; assay type: cell-based, human; conditions: Dox
Experimental: (§2) Protein extracts (10 μg) obtained were denatured, separated by SDS-PAGE electrophoresis (Bio-Rad), transferred onto PVDF membrane (Millipore) and probed with antibodies to GADPH (MERCK, 8795,1:5000), TBP (CELL SIGNALING, 8515, 1:1000), PR55α (CELL SIGNALING, 5689, 1:1000), phospho-HDAC4 (ABCAM, ab39408, 1:2000), HDAC4 (CELL SIGNALING, 5392, 1:1000), YY1 (CELL SIGNALING, 2185,1:1000) and sST2 (PROTEINTECH, 11,920-1-AP, 1:1000). Membranes were developed using HRP conjugated secondary antibodies and Pierce ECL western blotting substrate (Thermo Fisher Scientific). Signals were detected by chemiluminescence and quantified using ImageJ 1.44p pixel analysis (US National Institutes of Health).

sST2 = sST2 expression levels in hiPsCMs; assay type: cell-based, human; conditions: Dox 15 h
Experimental: RNA isolation and quantitative RT-PCR.
as §2

HDAC4 = test: Phosphorylated and total HDAC4 in cytosol and nucleus (subcellular fractionation, Western blot); assay type: cell-based, human; conditions: hiPsCMs; for phosphorylation state of HDAC4 Ser246 in cytosol: Dox 15 h, preincubation 24 h before Dox; for total HDAC4 levels in nuclei fractions: Dox, pretreatment before Dox
Experimental: Briefly, fresh LV (˜30 mg) tissue or harvested untreated or treated cells (˜3×10^6 cells) were washed using cold DPBS along with 100-fold diluted protease and phosphatase inhibitors. Human cardiomyocytes were pelleted by centrifugation at 480×g for 10 min at 4° C., while the myocardium was placed in a pre-chilled glass Petri dish and minced on ice using sharp scissors. All samples were homogenized in 500 μl of STM buffer at pH 7.4, containing 250 mM sucrose, 50 mM Tris-HCl, 5 mM MgCl2, 5 mM Na3VO4, 1% (v/v) protease and phosphatase inhibitor cocktails and homogenized for 1 min on ice using a tight-fitting Teflon pestle attached to a Potter S. homogenizer (Sartorius Stedium, Goettingen, Germany) set to 800 rpm. The homogenate was maintained on ice for 30 min, vortexed at maximum speed for 15 s and then centrifuged at 800×g for 15 min at 4° C. The pellet was labelled as P0 and kept on ice; the supernatant was labelled as S0. The pellet P0 (containing nuclei and debris) was resuspended in 500 μl STM buffer, vortexed at maximum speed for 15 s and then centrifuged at 500×g for 15 min at 4° C. Following the above step, the nuclear pellet was labelled as P1 and kept on ice, and the supernatant S1 (cell debris) was discarded. To further increase the purity of the P1 fraction it was washed in 400 μl STM buffer, vortexed at maximum speed for 15 s and then centrifuged at 1000×g for 15 min at 4° C. The washed pellet was labelled as P2 (S2 was discarded) and resuspended in 100 μl NET buffer composed of 20 mM Hepes pH 7.9, 1.5 mM MgCl2, 0.5 M NaCl, 0.2 mM EDTA, 20% (v/v) glycerol, 1% (v/v) Triton-X-100 and protease and phosphatase inhibitors, using a pipette to triturate until homogeneity. Pellet P2 was vortexed at maximum speed for 15 s and incubated on ice for 30 min; the resulting fraction contained the nuclei, which were lysed by sonication (Soniprep 150, MSE, London, UK) at a high setting for 10-15 s with 30 s pauses whilst being kept on ice. The lysate was centrifuged at 9000×g for 30 min at 4° C., the resultant supernatant (S3) was the final “nuclear fraction”. […] The protein content of each compartment was determined using the BCA protein assay^48. […]
as §1

[1] = tested on: miR-106b target FOG2 in hiPsCMs; test: FOG2 mRNA levels (efficiency of miR-106b inhibition) in hiPsCMs; assay type: cell-based, human; conditions: preincubation 24 h, then Dox 15 h, vs AC
PP2A = PP2A Immunoprecipitation Phosphatase Assay; assay type: cell-based, human; conditions: hiPsCMs, Dox treatment
Experimental: To measure PP2A phosphatase activity, we used a PP2A Immunoprecipitation Phosphatase Assay Kit (Millipore Sigma, catalog number 17-313). In brief, cells were lysed in 20 mM imidazole HCl, 2 mM EDTA, 2 mM EGTA, pH 7.0 with 10 μg/mL each of aprotinin, leupeptin, pepstatin, 1 mM benzamidine, and 1 mM PMSF. Two milligrams of the lysates were then immunoprecipitated with 2 μg of anti-STRN4 antibody (Abcam, ab177155) and 40 μl of protein-A-agarose beads at 4° C. overnight. Beads were washed three times with lysis buffer followed by the Ser/Thr assay buffer. Phosphatase reactions were then performed in Ser/Thr assay buffer with a final concentration of 750 μM of MAP4K4 phosphopeptides: S771/S775 (A-A-S-pS-L-N-L-pS-N-G-E-T-E-S-V-K), S876 (L-T-A-N-E-T Q-pS-A-S-S-T-L-Q-K) or S1251 (V-F-F-A-pS-V-R-S) for 10 min at 30° C. To provide evidence that the immunoprecipitated phosphatase activity is PP2A, we treated parallel immunoprecipitates with 5 nM of okadaic acid (Cell Signaling, #5934). Dephosphorylation of the phosphopeptide was measured through malachite green phosphate detection at 650 nm.

HL-1 cell line = test: FOG2 mRNA levels in HL-1 cell line; assay type: cell-based, mouse; conditions: 5 μM Dox for 15 h
[2] = tested on: Caspase 3/7 activity in hiPsCMs; test: Caspase-Glo 3/7 assay; assay type: cell-based, human; conditions: 5 μM Dox 15 h
Experimental: Caspase assay was performed as per the manufacturer's instructions with the Caspase-Glo 3/7 kit (Promega). In this setting, hiPsCMs were treated with 5 μM Dox for 15 h. Next, hiPsCMs and caspase assay reagent were left at RT for 30 min. The next step was adding an equal amount of caspase assay reagent and further incubated for 30 min at RT. Luminescence was measured using a microplate reader CLARIOstar Plus (BMG Labtech).

hiPsCMs [3] = test: LDH levels in cell supernatant from hiPsCMs; assay type: cell-based, human; conditions: Dox 15 h
hiPsCMs [4] = test: Assay for cell viability (MTT); assay type: cell-based, human; conditions: Dox 15 h
Experimental: After seeding 5×10^3 cells in each 96-well plate, they were incubated in 5% CO2 at 37° C. for 24 h. After cited treatment, MTT solution (1 mg/ml) was added to each well and an incubation was performed for 3 h at 37° C. Next, the medium containing MTT was removed and 100 μL of DMSO was added to each well and pipetted several times to form a completely uniform suspension. The solution was then shaken for 10 min at 37° C. until formazan crystals were completely dissolved. The obtained solution was added to a microtube and centrifuged in 1500 RPM for 5 min to eliminate any impurities. Absorbance of the samples was read at 570 nm and the background value at 690 nm was subtracted. The intrinsic absorbance value of doxorubicin was subtracted when necessary. The index of cell survival at each time point corresponds to the percentage with respect to control.

| Molecule | HDAC4-YY1 interaction (HDAC4-YY1 interaction) | miR-106b levels in hiPsCMs (miR-106b; 3 h of treatment) | miR-106b levels in hiPsCMs (miR-106b; 15 h, p<0.001) | miR-106b levels in the culture media of hiPsCMs (miR-106b; significant from 15 h) | decrease in PR55α protein levels (PR55α; 6 h of treatment) | decrease in PR55α protein levels (PR55α; 15 h, p<0.001) | YY1 protein expression (YY1; 6 h of treatment) | YY1 protein expression (YY1; 15 h, p<0.001) | sST2 expression levels (sST2) | phosphorylation state of HDAC4 Ser246 in cytosol (HDAC4) | total HDAC4 levels in nuclei fractions (HDAC4) | FOG2 mRNA levels [1] | PP2A activity (PP2A) | FOG2 mRNA levels (HL-1 cell line) | PR55α levels (PR55α; with or without Dox) | caspase 3/7 activity (myocardial apoptosis) [2] | release of LDH (hiPsCMs [3]) | loss of Dox-induced cell viability (hiPsCMs [4]) |
| --- | --- | --- | --- | --- | --- | --- | --- | --- | --- | --- | --- | --- | --- | --- | --- | --- | --- | --- |
| COc1cccc2c1C(=O)c1c(O)c3c(c(O)c1C2=O)C[C@@](O)(C(=O)CO)C[C@@H]3O[C@H]1C[C@H](N)[C@H](O)[C@H](C)O1 [Dox, doxorubicin] | prevent HDAC4-YY1 interaction | 2.3±0.03 fold control | significantly higher | progressively increased | 2.6±0.02 fold control | significantly higher | 3.8±0.23 fold control | significantly higher | increase in sST2 expression levels | significantly increases | significative decrease in total HDAC4 levels |  |  |  |  |  |  |  |
| AM106: miRCURY LNA microRNA Inhibitor against miR-106b-5p, 5′-CACTGTCAGCACTTT-3′ (SEQ ID NO 3), sequence shown without LNA pattern (antisense CACUGUCAGCACUUU; LNA-modified inhibitor, LNA pattern not given here) | favored these interaction |  |  |  |  |  |  |  | reverted this effect | decreased phosphorylation state of HDAC4 | increased | prevent down-regulation of FOG2 mRNA levels | prevented Dox-induced PP2A activity decrease | increases FOG2 mRNA levels | prevented Dox-induced PR55α degradation | decrease in caspase 3/7 activity | prevent the release of LDH | able to prevent |
